Results: patent publication US10765114B2, “4-amino-6-(pyridyl and 2-substitutedphenyl)-picolinates and 6-amino-2-(pyridyl and 2-substitutedphenyl)-pyrimidine-4-carboxylates and their use as herbicides” (Dow AgroSciences LLC, priority 2013, dated 2020)

What was measured:
Experiment in all cases: Post-Emergent Test III (Wheat and Barley)
APESV (windgrass) = format: in vivo, Apera spica-venti; settings: for pest or weed control at 35 g/ha / pest or weed control at 70 g/ha / pest or weed control at 140 g/ha: Apera spica-venti, post-emergence, 504 h, postemergence, read-out: Visual Growth Reduction (%) 21 Days After Application, APESV; for pest or weed control at 35 g/ha: 35 g ai/ha; for pest or weed control at 70 g/ha: 70 g ai/ha; for pest or weed control at 140 g/ha: 140 g ai/ha; for GR50, APESV: effective dose for growth reduction of 50 percent; for GR50, APESV / GR80, APESV: probit analysis; for GR80, APESV: effective dose for growth reduction of 80 percent
Protocol: (§1) Seeds of the desired test plant species were planted in Sun Gro MetroMix® 306 planting mixture, which typically has a pH of 6.0 to 6.8 and an organic matter content of about 30 percent, in plastic pots with a surface area of 103.2 square centimeters (cm^2). When required to ensure good germination and healthy plants, a fungicide treatment and/or other chemical or physical treatment was applied. The plants were grown for 7-36 days in a greenhouse with an approximate 14 h photoperiod which was maintained at about 18° C. during the day and 17° C. during the night. Nutrients and water were added on a regular basis and supplemental lighting was provided with overhead metal halide 1000-Watt lamps as necessary. The plants were employed for testing when they reached the second or third true leaf stage.
(§2) A weighed amount, determined by the highest rate to be tested, of each test compound was placed in a 25 mL glass vial and was dissolved in 4 mL of a 97:3 v/v mixture of acetone and DMSO to obtain concentrated stock solutions. […] The concentrated stock solutions obtained were diluted with 20 mL of an aqueous mixture containing acetone, water, isopropyl alcohol, DMSO, Agri-Dex crop oil concentrate, and X-77 surfactant in a 48:39:10:1.5:1.5:0.02 v/v ratio to obtain spray solutions containing the highest application rates. Additional application rates were obtained by serial dilution of 12 mL of the high rate solution into a solution containing 2 mL of 97:3 v/v mixture of acetone and DMSO and 10 mL of an aqueous mixture containing acetone, water, isopropyl alcohol, DMSO, Agri-Dex crop oil concentrate, and X-77 surfactant in a 48:39:10:1.5:1.5:0.02 v/v ratio to obtain ½×, ¼×, ⅛× and 1/16× rates of the high rate. Compound requirements are based upon a 12 mL application volume at a rate of 187 liters per hectare (L/ha). Formulated compounds were applied to the plant material with an overhead Mandel track sprayer equipped with 8002E nozzles calibrated to deliver 187 L/ha over an application area of 0.503 square meters at a spray height of 18 inches (43 cm) above the average plant canopy height. Control plants were sprayed in the same manner with the solvent blank.
(§3) The treated plants and control plants were placed in a greenhouse as described above and watered by subirrigation to prevent wash-off of the test compounds. After 21 dAYS, the condition of the test plants as compared with that of the untreated plants was determined visually and scored on a scale of 0 to 100 percent where 0 corresponds to no injury and 100 corresponds to complete kill and presented as indicated in Table A.
(§4) By applying the well-accepted probit analysis as described by J. Berkson in Journal of the American Statistical Society, 48, 565 (1953) and by D. Finney in “Probit Analysis” Cambridge University Press (1952), herbicidal injury of a specific compound at various rates can be used to calculate GR10, GR20, GR50, GR80 and GR90 values, which are defined as growth reduction factors that correspond to the effective dose of herbicide required to provide plant growth reduction (GR) of 10 percent, 20 percent, 50 percent, 80 percent and 90 percent, respectively. Probit analysis was applied to data collected from multiple dose rates of individual compounds utilizing the procedures explained in the following examples. The analysis of those dose rates is captured in the following tables.

KCHSC (kochia) = format: in vivo, Kochia scoparia; settings: for pest or weed control at 35 g/ha / pest or weed control at 70 g/ha / pest or weed control at 140 g/ha: Bassia scoparia, post-emergence, 504 h, postemergence, read-out: Visual Growth Reduction (%) 21 Days After Application, KCHSC; for pest or weed control at 35 g/ha: 35 g ai/ha; for pest or weed control at 70 g/ha: 70 g ai/ha; for pest or weed control at 140 g/ha: 140 g ai/ha; for GR50, KCHSC: effective dose for growth reduction of 50 percent; for GR50, KCHSC / GR80, KCHSC: probit analysis; for GR80, KCHSC: effective dose for growth reduction of 80 percent
Protocol: as §1, §2, §3, §4

SETVI (green foxtail) = format: in vivo, Setaria viridis; settings: for pest or weed control at 35 g/ha / pest or weed control at 70 g/ha / pest or weed control at 140 g/ha: Setaria viridis, post-emergence, 504 h, postemergence, read-out: Visual Growth Reduction (%) 21 Days After Application, SETVI; for pest or weed control at 35 g/ha: 35 g ai/ha; for pest or weed control at 70 g/ha: 70 g ai/ha; for pest or weed control at 140 g/ha: 140 g ai/ha; for GR50, SETVI: effective dose for growth reduction of 50 percent; for GR50, SETVI / GR80, SETVI: probit analysis; for GR80, SETVI: effective dose for growth reduction of 80 percent
Protocol: as §1, §2, §3, §4

HORSS = format: in vivo; settings: for pest or weed control at 35 g/ha / pest or weed control at 70 g/ha / pest or weed control at 140 g/ha: Hordeum vulgare, post-emergence, 504 h, postemergence, read-out: Visual Growth Reduction (%) 21 Days After Application, HORSS; for pest or weed control at 35 g/ha: 35 g ai/ha; for pest or weed control at 70 g/ha: 70 g ai/ha; for pest or weed control at 140 g/ha: 140 g ai/ha; for GR20, HORSS: effective dose for growth reduction of 20 percent, probit analysis
Protocol: as §1, §2, §3, §4

LOLSS = format: in vivo; settings: for GR50, LOLSS: effective dose for growth reduction of 50 percent; for GR50, LOLSS / GR80, LOLSS: probit analysis; for GR80, LOLSS: effective dose for growth reduction of 80 percent; for pest or weed control at 35 g/ha / pest or weed control at 70 g/ha / pest or weed control at 140 g/ha: post-emergence, 504 h, postemergence, read-out: Visual Growth Reduction (%) 21 Days After Application, LOLSS; for pest or weed control at 35 g/ha: 35 g ai/ha; for pest or weed control at 70 g/ha: 70 g ai/ha; for pest or weed control at 140 g/ha: 140 g ai/ha
Protocol: as §1, §2, §3, §4

TRZSS = format: in vivo; settings: for pest or weed control at 35 g/ha / pest or weed control at 70 g/ha / pest or weed control at 140 g/ha: Triticum aestivum, post-emergence, 504 h, postemergence, read-out: Visual Growth Reduction (%) 21 Days After Application, TRZSS; for pest or weed control at 35 g/ha: 35 g ai/ha; for pest or weed control at 70 g/ha: 70 g ai/ha; for pest or weed control at 140 g/ha: 140 g ai/ha; for GR20, TRZSS: effective dose for growth reduction of 20 percent, probit analysis
Protocol: as §1, §2, §3, §4

Row | SMILES | pest or weed control at 35 g/ha (APESV (windgrass)) | pest or weed control at 70 g/ha (APESV (windgrass)) | GR50, APESV (APESV (windgrass)) | GR80, APESV (APESV (windgrass)) | pest or weed control at 35 g/ha (KCHSC (kochia)) | pest or weed control at 70 g/ha (KCHSC (kochia)) | GR50, KCHSC (KCHSC (kochia)) | GR80, KCHSC (KCHSC (kochia)) | pest or weed control at 35 g/ha (SETVI (green foxtail)) | pest or weed control at 70 g/ha (SETVI (green foxtail)) | GR50, SETVI (SETVI (green foxtail)) | GR80, SETVI (SETVI (green foxtail)) | pest or weed control at 35 g/ha (HORSS) | pest or weed control at 70 g/ha (HORSS) | GR20, HORSS (HORSS) | pest or weed control at 35 g/ha (LOLSS) | pest or weed control at 70 g/ha (LOLSS) | pest or weed control at 35 g/ha (TRZSS) | pest or weed control at 70 g/ha (TRZSS) | GR20, TRZSS (TRZSS) | other results
1 | COC(=O)c1nc(-c2ccc(Cl)c(F)c2OC)cc(N)c1Cl [Compound 20] | 0 to 29% | 60 to 74% | 117 g ai/ha | >140 g ai/ha | 85 to 94% | 95 to 100% | 2 g ai/ha | 10 g ai/ha | 0 to 29% | 60 to 74% | 80 g ai/ha | >140 g ai/ha | 45 to 59% | 75 to 84% | 7 g ai/ha | 0 to 29% | 0 to 29% | 85 to 94% | 85 to 94% | 2 g ai/ha | pest or weed control at 140 g/ha (APESV (windgrass)): 75 to 84%; pest or weed control at 140 g/ha (KCHSC (kochia)): 95 to 100%; pest or weed control at 140 g/ha (SETVI (green foxtail)): 60 to 74%; pest or weed control at 140 g/ha (HORSS): 85 to 94%; GR50, LOLSS (LOLSS): >140 g ai/ha; GR80, LOLSS (LOLSS): >140 g ai/ha; pest or weed control at 140 g/ha (LOLSS): 30 to 44%; pest or weed control at 140 g/ha (TRZSS): 85 to 94%
2 | Nc1c(Cl)c(C(=O)O)nc(-c2ccc(C(F)(F)F)nc2)c1Cl [Compound 33] | 0 to 29% | 60 to 74% | 70 g ai/ha | 134 g ai/ha | 0 to 29% | 45 to 59% | 95 g ai/ha | >140 g ai/ha | 45 to 59% | 60 to 74% | 48 g ai/ha | >140 g ai/ha | 75 to 84% | 85 to 94% | 1 g ai/ha | 0 to 29% | 0 to 29% | 75 to 84% | 75 to 84% | 1 g ai/ha | pest or weed control at 140 g/ha (APESV (windgrass)): 60 to 74%; pest or weed control at 140 g/ha (KCHSC (kochia)): 60 to 74%; pest or weed control at 140 g/ha (SETVI (green foxtail)): 60 to 74%; pest or weed control at 140 g/ha (HORSS): 85 to 94%; GR50, LOLSS (LOLSS): >140 g ai/ha; GR80, LOLSS (LOLSS): >140 g ai/ha; pest or weed control at 140 g/ha (LOLSS): 30 to 44%; pest or weed control at 140 g/ha (TRZSS): 85 to 94%
3 | Nc1c(F)c(-c2ccc(C3CC3)nc2)nc(C(=O)O)c1Cl [Compound 36, 4-amino-5-chloro-6′-cyclopropyl-3-fluoro-[2,3′-bipyridine]-6-carboxylic acid] | 45 to 59% | 85 to 94% | 24 g ai/ha | 53 g ai/ha | 45 to 59% | 60 to 74% | 34 g ai/ha | 108 g ai/ha | 30 to 44% | 45 to 59% | 59 g ai/ha | >140 g ai/ha | 60 to 74% | 75 to 84% | 1 g ai/ha | 45 to 59% | 45 to 59% | 60 to 74% | 75 to 84% | 1 g ai/ha | GR50, LOLSS (LOLSS): 44 g ai/ha; GR80, LOLSS (LOLSS): 131 g ai/ha
4 | COC(=O)c1nc(-c2ccc(Cl)c(F)c2OC)c(F)c(N)c1Cl [Compound 39, methyl 4-amino-3-chloro-6-(4-chloro-3-fluoro-2-methoxyphenyl)-5-fluoropicolinate] | 30 to 44% | 60 to 74% | 75 g ai/ha | >140 g ai/ha | 85 to 94% | 95 to 100% | 6 g ai/ha | 21 g ai/ha | 0 to 29% | 0 to 29% | >140 g ai/ha | >140 g ai/ha | 30 to 44% | 60 to 74% | 23 g ai/ha | 0 to 29% | 0 to 29% | 85 to 94% | 95 to 100% | 11 g ai/ha | pest or weed control at 140 g/ha (APESV (windgrass)): 60 to 74%; pest or weed control at 140 g/ha (KCHSC (kochia)): 95 to 100%; pest or weed control at 140 g/ha (SETVI (green foxtail)): 45 to 59%; pest or weed control at 140 g/ha (HORSS): 75 to 84%; pest or weed control at 140 g/ha (LOLSS): 0 to 29%; pest or weed control at 140 g/ha (TRZSS): 95 to 100%
5 | COC(=O)c1nc(-c2ccc(C3CC3)nc2)c(F)c(N)c1Cl [Compound 49] | 85 to 94% | 75 to 84% | 1 g ai/ha | 24 g ai/ha | 95 to 100% | 95 to 100% | 9 g ai/ha | 17 g ai/ha | 30 to 44% | 95 to 100% | 28 g ai/ha | 57 g ai/ha | 75 to 84% | 85 to 94% | 1 g ai/ha | 95 to 100% | 85 to 94% | 75 to 84% | 85 to 94% | 1 g ai/ha | pest or weed control at 140 g/ha (APESV (windgrass)): 85 to 94%; pest or weed control at 140 g/ha (KCHSC (kochia)): 85 to 94%; pest or weed control at 140 g/ha (SETVI (green foxtail)): 95 to 100%; pest or weed control at 140 g/ha (HORSS): 85 to 94%; GR50, LOLSS (LOLSS): 15 g ai/ha; GR80, LOLSS (LOLSS): 31 g ai/ha; pest or weed control at 140 g/ha (LOLSS): 85 to 94%; pest or weed control at 140 g/ha (TRZSS): 85 to 94%
